# Earlier results as cited in patent US10857230B2, “Co-therapy comprising a small molecule CSF-1R inhibitor and an agonistic antibody that specifically binds CD40 for the treatment of cancer” (Janssen Biotech, Inc., priority 2017, dated 2020).
# Columns and labels:
# [1] = system: B cells and dendritic cells; settings: cited from earlier work
# [2] = patient clinical trials; day of antibody intravenous infusion; cited from earlier work
substance,measurement,setting,value
"CP-870,893: cross-linking independent agonistic CD40 antibody; VH and VL of SEQ ID NOs: 44 and 45, may be IgG2",potency in activating B cells relative to dendritic cells,[1],about 20 fold
same,most common side effects,[2],moderate CRS
